From patent US20240116985A1, “STAPLED PEPTIDES AND METHODS THEREOF” (priority 2020, published 2024)
In brackets after ≈: the same amount, converted by molar mass. Read-outs that look alike come from different tables or passages of the source.

Columns and labels:
[1] = biological target: T1, full-length beta-Catenin (Uniprot ID P35222) (Homo sapiens, UniProt P35222); test: Fluorescence polarization IC50 (beta-catenin / 5FAM-TCF4 10-53 competition); format: binding
T1 construct: 10 nM full-length beta-Catenin (Uniprot ID P35222)
T1 sequence (P35222 1-781): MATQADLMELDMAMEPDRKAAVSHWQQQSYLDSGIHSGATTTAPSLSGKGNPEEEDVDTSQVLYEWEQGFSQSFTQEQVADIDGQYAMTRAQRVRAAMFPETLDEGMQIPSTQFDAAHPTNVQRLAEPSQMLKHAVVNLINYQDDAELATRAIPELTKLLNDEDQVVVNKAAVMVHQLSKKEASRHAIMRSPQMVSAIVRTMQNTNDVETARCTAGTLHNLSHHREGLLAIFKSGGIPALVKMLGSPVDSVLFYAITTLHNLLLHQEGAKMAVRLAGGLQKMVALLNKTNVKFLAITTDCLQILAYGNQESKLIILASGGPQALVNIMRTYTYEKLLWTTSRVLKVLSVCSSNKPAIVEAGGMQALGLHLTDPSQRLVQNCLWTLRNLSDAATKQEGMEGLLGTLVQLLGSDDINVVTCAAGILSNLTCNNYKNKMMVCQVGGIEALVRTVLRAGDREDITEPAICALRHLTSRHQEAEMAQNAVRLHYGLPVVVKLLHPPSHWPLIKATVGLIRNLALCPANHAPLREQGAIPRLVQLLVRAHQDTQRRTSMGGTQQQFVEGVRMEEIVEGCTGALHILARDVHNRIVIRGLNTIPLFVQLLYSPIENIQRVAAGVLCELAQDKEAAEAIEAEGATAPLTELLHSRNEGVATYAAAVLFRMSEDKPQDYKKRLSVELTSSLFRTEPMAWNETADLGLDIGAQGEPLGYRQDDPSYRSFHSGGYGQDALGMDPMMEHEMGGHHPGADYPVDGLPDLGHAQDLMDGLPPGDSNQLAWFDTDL

Solubility in PBS = format: physicochemical
In short: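 Solubility is derived from HPLC peak areas: the ratio of the PBS supernatant peak to a 50 μM DMSO peptide peak, times 50 uM.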

CHI Log D procedure = format: physicochemical; conditions: for chromatographic logD: pH 7.4, CHI Log D; for CHI Log D: pH 7.4
[2] = fluorescence polarization, read-out: beta-Catenin FP IC50

CC(=O)N1CCC[C@]12CC=CCCCC1(CCCC=CCCCCCC[C@@](C)(C(=O)N[C@@H](Cc3ccsc3)C(=O)N[C@@H](Cc3csc4ccccc34)C(=O)N[C@@H](Cc3c[nH]cn3)C(N)=O)NC(=O)[C@H](CC(N)=O)NC(=O)[C@H](Cc3ccccc3)NC(=O)[C@H](C)NC(=O)[C@H](C)NC(=O)[C@H](CN(CC(=O)O)CC(F)(F)F)NC(=O)[C@H](CC(=O)O)NC1=O)NC(=O)[C@H](CC(C)(C)C)NC(=O)[C@H](CC(=O)O)NC2=O (stereo partly drawn) [I-705, Ac-PL3-Asp-Npg-B5-Asp-TfeGA-Ala-Ala-Phe-Asn-S8-3Thi-BztA-His-NH2]
IC50 [1, 2]: 58 nM | Solubility (Solubility in PBS; Solubility (uM)): 25 µM (≈ 49.9 µg/mL) | chromatographic logD (CHI Log D procedure): 2.89

CC(=O)N1CCC[C@]12CC=CCCCC1(CCCC=CCCCCCC[C@@](C)(C(=O)N[C@@H](Cc3ccccc3)C(=O)N[C@@H](Cc3csc4ccccc34)C(=O)N[C@@H](CCC(N)=O)C(N)=O)NC(=O)[C@H](CC(N)=O)NC(=O)[C@H](Cc3ccccc3)NC(=O)[C@H](C)NC(=O)[C@H](C)NC(=O)[C@H](CN(CC(=O)O)CC(F)(F)F)NC(=O)[C@H](CC(=O)O)NC1=O)NC(=O)[C@H](CC1CCCCC1)NC(=O)[C@H](CC(=O)O)NC2=O (stereo partly drawn) [I-706, Ac-PL3-Asp-Cha-B5-Asp-TfeGA-Ala-Ala-Phe-Asn-S8-Phe-BztA-Gln-NH2]
IC50 [1, 2]: 57 nM | Solubility (Solubility in PBS; Solubility (uM)): 48 µM (≈ 96.3 µg/mL) | chromatographic logD (CHI Log D procedure): 2.99

CC(=O)N1CCC[C@]12CC=CCCCC1(CCCC=CCCCCCC[C@@](C)(C(=O)N[C@@H](Cc3ccsc3)C(=O)N[C@@H](Cc3csc4ccccc34)C(=O)N[C@@H](CCC(N)=O)C(N)=O)NC(=O)[C@H](CC(N)=O)NC(=O)[C@H](Cc3ccccc3)NC(=O)[C@H](C)NC(=O)[C@H](C)NC(=O)[C@H](CN(CC(=O)O)CC(F)(F)F)NC(=O)[C@H](CC(=O)O)NC1=O)NC(=O)[C@H](CC1CCCCC1)NC(=O)[C@H](CC(=O)O)NC2=O (stereo partly drawn) [I-707, Ac-PL3-Asp-Cha-B5-Asp-TfeGA-Ala-Ala-Phe-Asn-S8-3Thi-BztA-Gln-NH2]
IC50 [1, 2]: 46 nM | IC50 ([1]; read-out: FP EC50): 46 nM | Solubility (Solubility in PBS): 48 µM (≈ 96.6 µg/mL) | CHI Log D (CHI Log D procedure): 2.963

CC(=O)N1CCC[C@]12CC=CCCCC1(CCCC=CCCCCCC[C@@](C)(C(=O)N[C@@H](Cc3ccsc3)C(=O)N[C@@H](Cc3csc4ccccc34)C(=O)N[C@@H](Cc3c[nH]cn3)C(N)=O)NC(=O)[C@H](CC(N)=O)NC(=O)[C@H](Cc3ccccc3)NC(=O)[C@H](C)NC(=O)[C@H](C)NC(=O)[C@H](CN(CC(=O)O)CC(F)(F)F)NC(=O)[C@H](CC(=O)O)NC1=O)NC(=O)[C@H](CC1CCCCC1)NC(=O)[C@H](CC(=O)O)NC2=O (stereo partly drawn) [I-709, Ac-PL3-Asp-Cha-B5-Asp-TfeGA-Ala-Ala-Phe-Asn-S8-3Thi-BztA-His-NH2]
IC50 [1, 2]: 54 nM | Solubility (Solubility in PBS): 10 µM (≈ 20.2 µg/mL) | chromatographic logD (CHI Log D procedure): 3.11

CC[C@H](C)[C@@H]1NC(=O)[C@H](CC(=O)O)NC(=O)[C@]2(CC=CCCCC3(CCCC=CCCCCCC[C@@](C)(C(=O)N[C@@H](Cc4ccccc4)C(=O)N[C@@H](Cc4csc5ccccc45)C(=O)N[C@@H](CCC(N)=O)C(N)=O)NC(=O)[C@H](CCC(N)=O)NC(=O)[C@H](Cc4ccccc4)NC(=O)[C@H](C)NC(=O)[C@H](C)NC(=O)[C@H](CCC(=O)O)NC(=O)[C@H](CC(=O)O)NC3=O)NC1=O)CCCN2S(C)(=O)=O (stereo partly drawn) [I-710, MeSO2-PL3-Asp-Ile-B5-Asp-Glu-Ala-Ala-Phe-Gln-S8-Phe-BztA-Gln-NH2]
IC50 [1, 2]: 73 nM | IC50 ([1]; read-out: FP EC50): 73 nM | Solubility (Solubility in PBS): 45 µM (≈ 86.4 µg/mL) | CHI Log D (CHI Log D procedure): 2.143

CC[C@H](C)[C@@H]1NC(=O)[C@H](CC(=O)O)NC(=O)[C@]2(CC=CCCCC3(CCCC=CCCCCCC[C@@](C)(C(=O)N[C@@H](Cc4ccccc4)C(=O)N[C@@H](Cc4csc5ccccc45)C(=O)N[C@@H](CCC(N)=O)C(N)=O)NC(=O)[C@H](CCC(N)=O)NC(=O)[C@H](Cc4ccccc4)NC(=O)[C@H](C)NC(=O)[C@H](C)NC(=O)[C@H](CCC(=O)O)NC(=O)[C@H](CC(=O)O)NC3=O)NC1=O)CCCN2S(C)(=O)=O (stereo partly drawn) [I-711, MeSO2-PL3-Asp-Ile-B5-Asp-Glu-Ala-Ala-Phe-Gln-S8-Phe-BztA-Gln-NH2]
IC50 [1, 2]: 88 nM | IC50 ([1]; read-out: FP EC50): 88 nM | Solubility (Solubility in PBS): 48 µM (≈ 92.1 µg/mL) | CHI Log D (CHI Log D procedure): 2.132

CC(=O)N1CCC[C@]12CC=CCCCC1(CCCC=CCCCCCC[C@@](C)(C(=O)N[C@@H](Cc3ccccc3)C(=O)N[C@@H](Cc3csc4ccccc34)C(N)=O)NC(=O)[C@H](CC(N)=O)NC(=O)[C@H](Cc3ccccc3)NC(=O)[C@H](C)NC(=O)[C@H](C)NC(=O)[C@H](CCC(=O)O)NC(=O)[C@H](CC(=O)O)NC1=O)NC(=O)[C@H](CC(C)(C)C)NC(=O)[C@H](CC(=O)O)NC2=O (stereo partly drawn) [I-712, Ac-PL3-Asp-Npg-B5-Asp-Glu-Ala-Ala-Phe-Asn-S8-Phe-BztA-NH2]
IC50 [1, 2]: 92 nM | IC50 ([1]; read-out: FP EC50): 92 nM | Solubility (Solubility in PBS): 42 µM (≈ 73.7 µg/mL) | CHI Log D (CHI Log D procedure): 2.778

CC(=O)N1CCC[C@]12CC=CCCCC1(CCCC=CCCCCCC[C@@](C)(C(=O)N[C@@H](Cc3ccccc3)C(=O)N[C@@H](Cc3csc4ccccc34)C(N)=O)NC(=O)[C@H](CC(N)=O)NC(=O)[C@H](Cc3ccccc3)NC(=O)[C@H](C)NC(=O)[C@H](C)NC(=O)[C@H](CCC(=O)O)NC(=O)[C@H](CC(=O)O)NC1=O)NC(=O)[C@H](CC(C)(C)C)NC(=O)[C@H](CC(=O)O)NC2=O (stereo partly drawn) [I-713, Ac-PL3-Asp-Npg-B5-Asp-Glu-Ala-Ala-Phe-Asn-S8-Phe-BztA-NH2]
IC50 [1, 2]: 70 nM | IC50 ([1]; read-out: FP EC50): 70 nM | Solubility (Solubility in PBS): 48 µM (≈ 84.2 µg/mL) | CHI Log D (CHI Log D procedure): 2.851

CC[C@H](C)[C@@H]1NC(=O)[C@H](CC(=O)O)NC(=O)[C@]2(CC=CCCCC3(CCCC=CCCCCCC[C@@](C)(C(=O)N[C@@H](Cc4ccccc4)C(=O)N[C@@H](Cc4csc5ccccc45)C(N)=O)NC(=O)[C@H](CC(N)=O)NC(=O)[C@H](Cc4ccccc4)NC(=O)[C@H](C)NC(=O)[C@H](C)NC(=O)[C@H](CCC(=O)O)NC(=O)[C@H](CC(=O)O)NC3=O)NC1=O)CCCN2C(C)=O (stereo partly drawn) [I-714, Ac-PL3-Asp-Ile-B5-Asp-Glu-Ala-Ala-Phe-Asn-S8-Phe-BztA-NH2]
IC50 [1, 2]: 131 nM | IC50 ([1]; read-out: FP EC50): 131 nM | Solubility (Solubility in PBS): 43 µM (≈ 74.9 µg/mL) | CHI Log D (CHI Log D procedure): 2.698

CC[C@H](C)[C@@H]1NC(=O)[C@H](CC(=O)O)NC(=O)[C@]2(CC=CCCCC3(CCCC=CCCCCCC[C@@](C)(C(=O)N[C@@H](Cc4ccccc4)C(=O)N[C@@H](Cc4csc5ccccc45)C(N)=O)NC(=O)[C@H](CC(N)=O)NC(=O)[C@H](Cc4ccccc4)NC(=O)[C@H](C)NC(=O)[C@H](C)NC(=O)[C@H](CCC(=O)O)NC(=O)[C@H](CC(=O)O)NC3=O)NC1=O)CCCN2C(C)=O (stereo partly drawn) [I-715, Ac-PL3-Asp-Ile-B5-Asp-Glu-Ala-Ala-Phe-Asn-S8-Phe-BztA-NH2]
IC50 [1, 2]: 60.5 nM | IC50 ([1]; read-out: FP EC50): 60.5 nM | Solubility (Solubility in PBS): 25 µM (≈ 43.5 µg/mL) | CHI Log D (CHI Log D procedure): 2.762

CC(=O)N1CCC[C@]12CC=CCCCC1(CCCC=CCCCCCC[C@@](C)(C(=O)N[C@@H](Cc3ccsc3)C(=O)N[C@@H](Cc3csc4ccccc34)C(N)=O)NC(=O)[C@H](CC(N)=O)NC(=O)[C@H](Cc3ccccc3)NC(=O)[C@H](C)NC(=O)[C@H](C)NC(=O)[C@H](CCC(=O)O)NC(=O)[C@H](CC(=O)O)NC1=O)NC(=O)[C@H](CC(C)C)NC(=O)[C@H](CC(=O)O)NC2=O (stereo partly drawn) [I-716, Ac-PL3-Asp-Leu-B5-Asp-Glu-Ala-Ala-Phe-Asn-S8-3Thi-BztA-NH2]
IC50 [1, 2]: 91 nM | IC50 ([1]; read-out: FP EC50): 91 nM | Solubility (Solubility in PBS): 50 µM (≈ 87.4 µg/mL) | CHI Log D (CHI Log D procedure): 2.622

CC(=O)N1CCC[C@]12CC=CCCCC1(CCCC=CCCCCCC[C@@](C)(C(=O)N[C@@H](Cc3ccsc3)C(=O)N[C@@H](Cc3csc4ccccc34)C(N)=O)NC(=O)[C@H](CC(N)=O)NC(=O)[C@H](Cc3ccccc3)NC(=O)[C@H](C)NC(=O)[C@H](C)NC(=O)[C@H](CCC(=O)O)NC(=O)[C@H](CC(=O)O)NC1=O)NC(=O)[C@H](CC(C)C)NC(=O)[C@H](CC(=O)O)NC2=O (stereo partly drawn) [I-717, Ac-PL3-Asp-Leu-B5-Asp-Glu-Ala-Ala-Phe-Asn-S8-3Thi-BztA-NH2]
IC50 [1, 2]: 39 nM | IC50 ([1]; read-out: FP EC50): 39 nM | Solubility (Solubility in PBS): 35 µM (≈ 61.1 µg/mL) | CHI Log D (CHI Log D procedure): 2.694

CC(=O)N1CCC[C@]12CC=CCCCC1(CCCC=CCCCCCC[C@@](C)(C(=O)N[C@@H](Cc3ccsc3)C(=O)N[C@@H](Cc3csc4ccccc34)C(N)=O)NC(=O)[C@H](CC(N)=O)NC(=O)[C@H](Cc3ccccc3)NC(=O)[C@H](C)NC(=O)[C@H](C)NC(=O)[C@H](CCC(=O)O)NC(=O)[C@H](CC(=O)O)NC1=O)NC(=O)[C@H](CC(C)(C)C)NC(=O)[C@H](CC(=O)O)NC2=O (stereo partly drawn) [I-718, Ac-PL3-Asp-Npg-B5-Asp-Glu-Ala-Ala-Phe-Asn-S8-3Thi-BztA-NH2]
IC50 [1, 2]: 82 nM | IC50 ([1]; read-out: FP EC50): 82 nM | Solubility (Solubility in PBS): 38 µM (≈ 66.9 µg/mL) | CHI Log D (CHI Log D procedure): 2.765
